Assay results reported in patent US6720332B2, “Oxindole derivatives” (SmithKline Beecham Corporation, priority 2000, dated 2004).

Assays:
[1] = test system: human tumor cells (U2OS, MDA-MB-231, SaOs-2, MDA-MB-468); assay: Anti-proliferation cell-based assay (BrdU incorporation); conditions: 18 hr compound incubation, cell line not given, read-out: Anti-proliferative activity
Description: Anti-Proliferation Cell-Based Assay
The anti-proliferative activity of compounds was determined measuring the rate of DNA synthesis by bromodeoxyuridine (BrdU) incorporation into cellular DNA. The amount of BrdU in cellular DNA was detected using an anti-BrdU antibody in an ELISA format to allow for rapid throughput. Log-phase growing human tumor cells either containing functional Rb (U2OS, MDA-MB-231) or lacking functional Rb protein (SaOs-2, MDA-MB-468) were plated in medium into 96-well plates (1−6×10^3 cells/100 μL medium/well) and allowed to incubate overnight […]. Compounds (concentration range of 0.046-100 μM) were diluted in medium (final DMSO (v/v) 0.8%), added to wells containing cells, and incubated for 18 hr at 37° C. BrdU (100 μM) was added and incubated for 4 hr. Cells were rinsed with PBS and DNA was denatured by addition of fixation/denaturation solution. Anti-BrdU antibody conjugated to horseradish peroxidase in 1% BSA was added for 2 hr at room temperature. Cells were washed, the chemiluminescence reagent was added, and plates were read in luminometer.

CDK2 = biological target: T1, CDK2 (Homo sapiens, UniProt P24941); assay: CDK2 substrate phosphorylation assay (biotinylated peptide); assay type: biochemical; conditions: read-out: CDK2 inhibition
T1 construct: made in house
Description: (§1) The compounds of the present invention have valuable pharmacologic properties. Different compounds from this class are particularly effective at inhibiting CDK2 and/or CDK4 enzymes at concentrations, which range from 0.0001 to 1 μM and additionally show specificity relative to other kinases. Substrate phosphorylation assays were carried out as follows:
Cyclin dependent protein kinase 2 assays utilized the peptide Biotin-aminohexyl-ARRPMSPKKKA-NH2 as phosphoryl group acceptor. CDK2 was expressed utilizing a baculovirus expression system and was partially purified to comprise 20-80% of total protein, with no detectable competing reactions present. Typically, assays were performed by incubating enzyme (0.2-10 nM), with and without inhibitor, peptide substrate (1-10 nM), [g-^32P]ATP (1-20 nM), and 10-20 mM Mg^2+ for periods of time generally within the range 10-120 minutes. Reactions were terminated with 0.2-2 volumes of either 20% acetic acid or 50-100 mM EDTA buffered to pH 7 (substrate consumption <20%). The buffer employed in enzyme assay was 100 mM HEPES pH 7.5 containing 0.1 mg/mL BSA and 5% DMSO. Inhibitors were diluted in 100% DMSO prior to addition into the assay. Detection of peptide phosphorylation was accomplished by scintillation counting following either collection of peptide onto phosphocellulose filters (for reactions stopped with acetic acid), collection of peptide in wells of 96 well plates coated with Streptavidin (Pierce) (reactions were stopped with EDTA), or addition of Avidin coated Scintillant impregnated beads (Scintillation Proximity Assays from Amersham, reactions were stopped with EDTA). […] Radioactivity was determined by liquid scintillation counting.

[2] = biological target: T2, CDK4 (Cyclin D1 and cyclin-dependent kinase 4) (Homo sapiens, UniProt P11802); assay: CDK4 substrate phosphorylation assay (Rb protein); assay type: biochemical; conditions: read-out: CDK4 inhibition
T2 construct: made in house
T2 sequence (P11802 whole entry): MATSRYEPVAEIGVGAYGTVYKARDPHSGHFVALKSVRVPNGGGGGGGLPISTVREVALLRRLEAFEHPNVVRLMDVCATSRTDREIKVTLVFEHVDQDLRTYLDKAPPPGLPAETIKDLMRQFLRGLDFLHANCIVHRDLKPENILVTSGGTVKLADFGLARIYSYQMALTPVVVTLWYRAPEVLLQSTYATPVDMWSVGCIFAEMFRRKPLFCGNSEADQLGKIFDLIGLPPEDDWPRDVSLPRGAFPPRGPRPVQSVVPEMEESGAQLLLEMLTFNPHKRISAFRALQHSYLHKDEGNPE
T2 sequence (P24385 whole entry partner): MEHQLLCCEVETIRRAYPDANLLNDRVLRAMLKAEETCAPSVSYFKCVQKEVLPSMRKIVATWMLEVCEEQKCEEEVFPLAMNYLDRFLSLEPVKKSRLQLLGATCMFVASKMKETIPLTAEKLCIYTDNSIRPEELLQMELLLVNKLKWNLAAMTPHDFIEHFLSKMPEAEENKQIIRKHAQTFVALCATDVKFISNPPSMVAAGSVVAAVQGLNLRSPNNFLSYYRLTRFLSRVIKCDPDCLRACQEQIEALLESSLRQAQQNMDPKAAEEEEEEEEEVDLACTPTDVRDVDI
Description: as §1
Cyclin D1 and cyclin-dependent kinase 4 were expressed utilizing a baculovirus expression system. The catalytic activity of CDK4 protein was assayed by measuring the phosphorylation of Rb protein. A truncated Rb protein (residues 773-928 of the native retinoblastoma protein, fused to glutathione S-transferase to facilitate purification) was used as the phosphoryl acceptor. The assay conditions were 100 mM HEPES (N-[2-hydroxyethyl]piperzine-N′-[2-ethanesulfonic acid]), pH 7.5, 0.5 μM GST-Rb protein, 1 μCi/mL [^33P]-ATP (1 nM-20 μM), 5-20 mM MgCl2, 2.5 mM EDTA, 1 mM dithiothieitol, 0.2 mg/mL bovine serum albumin, 2% (v/v) dimethyl sulfoxide (DMSO), CDK4 enzyme (5-50 nM) in a final volume of 50 μL. Reactions were incubated for time periods of 10-60 min at 30° C. and terminated by the addition of 50 μL quench (1 mM ATP/100 mM EDTA, pH 7.0). Detection of protein phosphorylation was accomplished by scintillation counting following collection of protein in 96 well plates coated with Glitathione or trapping of protein onto phosphocellulose filters. Counts detected by these methodologies minus the appropriate background were assumed to be proportional to the reaction initial rates. IC50 values were determined by measuring enzyme activity in the presence of different inhibitor concentrations (0.1 nM to 50 μM). IC50s were determined by a least squares fit to the equation CPM=Vmax*(1−([I]/(K+[I])))+nsb, or pIC50s were determined by a fit to the equation CPM=nsb+(Vmax−nsb)/(1+(x/10^x−pIC50)), where nsb are the background counts.

For `CN(C)Cc1ccc(N/C=C2\C(=O)Nc3ccc4ncccc4c32)cc1` [Example 1, 1-[(Z)-(4-Dimethylaminomethylanilino)methylidene]-1,3-dihydro-2H-pyrrolo[3,2-f]quinoline-2-one], the IC50 [1] was less than 1000 nM, the IC50 (CDK2) was less than 1000 nM and the IC50 [2] was less than 100 nM.

Molecule `O=C1Nc2ccc3ncccc3c2/C1=C/Nc1ccc(CN2CCOCC2)cc1` [Example 10, 1-[(Z)-(4-(4-morpholinyl)methylanilino)methylidene]-1,3-dihydro-2H-pyrrolo[3,2-f]quinoline-2-one] has an IC50 [1] of less than 1000 nM, an IC50 (CDK2) of less than 100 nM and an IC50 [2] of less than 100 nM.

`CC(C)CN(C)Cc1ccc(N/C=C2\C(=O)Nc3ccc4ncccc4c32)cc1` [Example 6, 1-[(Z)-(4-(N-Methyl)-2-methylpropylaminomethylanilino)methylidene]-1,3-dihydro-2H-pyrrolo[3,2-f]quinoline-2-one] was tested, and the IC50 [1] was less than 100 nM, the IC50 (CDK2) was less than 1000 nM and the IC50 [2] was less than 100 nM.
